Source: PMC11744766, “Dual Inhibitors of SARS-CoV-2 3CL Protease and Human Cathepsin L Containing Glutamine Isosteres Are Anti-CoV-2 Agents” (Journal of the American Chemical Society, 2025)
Several values for one entry are separate records, joined by “and”; a condition that tells them apart may be missing. Equal values may be shown once. Read-outs that look alike come from different tables or passages of the source.

Key:
[1] = target: T1, SARS-CoV-2 3CL protease (3CL-PR) (Severe acute respiratory syndrome coronavirus 2, UniProt P0DTC1); assay: biochemical; assay type: biochemical
[2] = system: SARS-CoV-2 (USA_WA1/2020 isolate); assay: Vero E6-based microneutralization assay of SARS-CoV-2 infection (CPE); assay type: cell-based; conditions: for fold less potent in inhibiting SARS-CoV-2 infection than Nirmatrelvir and PF-835231: ratio of EC50
[3] = target: T1, SARS-CoV-2 3CL protease (3CL-PR); conditions: cited from earlier work; for Ki: read-out: Ki (3CL-PR)
human cathepsin B = target: T2, human cathepsin B (Homo sapiens, UniProt P07858); assay: Kinetic assay of human cathepsin B inhibition (Z-LR-AMC fluorescence); assay type: biochemical
T2 construct: purchased Millipore Sigma or R&D Systems

human cathepsin L [4] = target: T3, human cathepsin L (Homo sapiens, UniProt P07711); assay: Kinetic assay of human cathepsin L inhibition (Z-LR-AMC / Z-FR-AMC fluorescence); assay type: biochemical; conditions: for mode of inhibition of hCatL: inhibitor vs variable substrate
T3 construct: His-tag (only implied by the Ni-NTA capture and the pET-28a(+) vector); host or cells: E. coli C43(DE3)

human cathepsin L [5] = target: T3, human cathepsin L; conditions: read-out: Ki (hCatL), cited from earlier work
[6] = 25 °C, pH 7.5, time-dependent inhibitors at t ∼ 30 min (steady-state), read-out: Ki * (nM) 3CL-PR
[7] = Severe acute respiratory syndrome coronavirus 2, Vero C1008, 72 h, Vero E6 cells, 2 μM CP-100356, CPE after 3 days, read-out: Anti-SARS-CoV-2 Activity EC50
[8] = 25 °C, pH 5.5, time-dependent inhibitors at t ∼ 30 min (steady-state), read-out: Ki * (nM) hCat B
[9] = 25 °C, pH 5.5, time-dependent inhibitors at t ∼ 30 min (steady-state), read-out: Ki * (nM) hCat L
[10] = initial rates, t = 0–3 min, read-out: Ki (hCatB) from initial rates vi/v0

T3 sequence (P07711 114-333): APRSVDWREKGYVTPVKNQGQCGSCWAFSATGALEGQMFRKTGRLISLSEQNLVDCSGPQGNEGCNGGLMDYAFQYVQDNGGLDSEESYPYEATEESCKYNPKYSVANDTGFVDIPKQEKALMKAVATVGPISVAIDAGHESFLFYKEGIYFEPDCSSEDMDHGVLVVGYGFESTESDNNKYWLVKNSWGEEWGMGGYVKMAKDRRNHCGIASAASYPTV

With `COc1cccc2[nH]c(C(=O)N[C@@H](CC(C)C)C(=O)N[C@@H](C[C@@H]3CCNC3=O)C(=O)CO)cc12` [PF-835231, reference compound] the Ki [1, 6] was 0.23 ± 0.09 nM, the “fold more potent than Nirmatrelvir vs 3CL-PR” value ([1]; ratio of Ki) was “more than 10 fold” and the EC50 [2, 7] was 0.23 µM.

For `CN1CCN(C(=O)N[C@@H](Cc2ccccc2)C(=O)N[C@H](/C=C/S(=O)(=O)c2ccccc2)CCc2ccccc2)CC1` [Compound K11777, reference compound], the Ki ([3]; K11777) is given as over 10000 nM.

For `CN1CCN(C(=O)NC(Cc2ccccc2)C(=O)NC2Cc3ccccc3OC2O)CC1` (centres unmarked) [Compound 1], the “inhibition of 3CL-PR” value ([3]; compound 1) is given as “did not inhibit” and the Ki ([3]; compound 1) is given as over 10000 nM.

For `O=CC(Cc1ccc[nH]c1=O)NC(=O)C(CC1CCCCC1)NC(=O)c1cc2ccccc2[nH]1` (centres unmarked) [Compound 5], the Ki [1, 6] was 27 ± 5 nM, the “fold improvement in inhibition of 3CL-PR, 5 over 4” value ([1]; CHA for Leu at P2) was 1.5 fold and the Ki (human cathepsin B; [8]) was 101 ± 3 nM. The EC50 [2, 7] was 1.9 µM, the “fold less potent in inhibiting SARS-CoV-2 infection than Nirmatrelvir and PF-835231” value ([2]; Vero E6 cells) was “eight-fold less active” and the Ki (human cathepsin L [4]; [9]) was 9 ± 2 nM. The “fold improvement in inhibition of hCatL, 5 over 4” value (human cathepsin L [4]; CHA for Leu at P2) was 2 fold and the “mode of inhibition of hCatL” value (human cathepsin L [4]) was “competitive inhibitor”.

With `CC(C)C[C@H](NC(=O)OCc1ccccc1)C(=O)N[C@@H](CC1CCCCC1)C(=O)N[C@H](C=O)Cc1ccc[nH]c1=O` [Compound 3] the Ki [1, 6] was 9 ± 2 nM, the Ki ([1]; competitive pattern at < 10 min incubation (Figure S1B), read-out: Ki (3CL-PR) before longer incubation) was 16 nM and the “mode of inhibition of 3CL-PR” value ([1]; inhibitor vs variable substrate) was “competitive inhibitor”. For the same molecule, the “fold less potent vs 3CL-PR than Nirmatrelvir” value ([1]; ratio of Ki) was 3 fold, the Ki (human cathepsin B; [8]) was 280 ± 5 nM and the Ki (human cathepsin B; [10]) was 290 nM. For the same molecule, the EC50 [2, 7] was 0.47 µM, the “fold less potent in inhibiting SARS-CoV-2 infection than Nirmatrelvir and PF-835231” value ([2]; Vero E6 cells) was 2 fold and the Ki (human cathepsin L [4]; [9]) was 8 ± 1 nM. The “mode of inhibition of hCatL” value (human cathepsin L [4]) was “competitive inhibitor”.

`COc1cccc2[nH]c(C(=O)N[C@@H](CC(C)C)C(=O)N[C@H](C=O)Cc3cocn3)cc12` [Compound 8] showed a Ki [1, 6] of 124 ± 5 nM, a Ki (human cathepsin B; [8]) of 189 ± 9 nM and an EC50 ([2]; Severe acute respiratory syndrome coronavirus 2, Vero C1008, 72 h, read-out: Anti-SARS-CoV-2 Activity EC50 (μM), Vero E6 cells, 2 μM CP-100356, CPE after 3 days) of 0.62 µM. For the same molecule, the EC50 ([2]; Vero E6 cells, 2 μM CP-100356, CPE after 3 days, read-out: Anti-SARS-CoV-2 Activity EC50) was 0.625 µM and the Ki (human cathepsin L [4]; [9]) was 1.1 ± 0.1 nM.

In the case of `CN1CCN(C(=O)NC(Cc2ccccc2)C(=O)NC2Cc3cccnc3OC2O)CC1` (centres unmarked) [Compound 2], the Ki ([3]; compound 2) is given as 250 nM and the Ki (human cathepsin L [5]; compounds 1 and 2) is given as 1.03 nM and 1 nM.

`CC(C)(C)[C@H](NC(=O)C(F)(F)F)C(=O)N1C[C@H]2[C@@H]([C@H]1C(=O)N[C@H](C#N)C[C@@H]1CCNC1=O)C2(C)C` [Nirmatrelvir, reference compound] showed an EC50 [2, 7] of 0.23 µM.

For `CC(C)CC(NC(=O)c1cc2ccccc2[nH]1)C(=O)NC(C=O)Cc1ccc[nH]c1=O` (centres unmarked) [Compound 4], the Ki [1, 6] was 38 ± 4 nM, the Ki (human cathepsin B; [8]) was 210 ± 20 nM and the EC50 [2, 7] was 15 µM. For the same molecule, the Ki (human cathepsin L [4]; [9]) was 17 ± 1 nM.

With `COc1cccc2[nH]c(C(=O)NC(CC(C)C)C(=O)NC(C=O)Cc3ccc[nH]c3=O)cc12` (centres unmarked) [Compound 6] the “fold more potent vs 3CL-PR, 6 compared to 8” value [1] was 50 fold, the “fold improvement in inhibition of 3CL-PR, 6 over 4” value ([1]; 4-methoxy group on indole) was 15 fold and the Ki [1, 6] was 2.6 ± 0.4 nM. It also gave a Ki ([1]; initial rates, t = 0–180 s, read-out: Ki (3CL-Pro) from initial rates vi/v0) of 20 ± 2 nM, a Ki (human cathepsin B; [8]) of 100 ± 2 nM and a Ki (human cathepsin B; [10]) of 65 ± 3 nM. For the same molecule, the EC50 [2, 7] was 1.25 µM, the “fold less potent in inhibiting SARS-CoV-2 infection than Nirmatrelvir and PF-835231” value ([2]; Vero E6 cells) was “five-fold less potent” and the “fold less anti-CoV-2 activity in comparison to AC1115” value ([2]; not evaluated under the same conditions) was 4 fold. For the same molecule, the “fold improvement in inhibition of hCatL, 6 over 4” value (human cathepsin L [4]; 4-methoxy group on indole) was 30 fold, the Ki (human cathepsin L [4]; [9]) was 0.6 nM and 0.55 nM and the Ki (human cathepsin L [4]; initial rates, t = 0–180 s, read-out: Ki (hCatL) from initial rates vi/v0) was 2.3 ± 0.4 nM.

For `CC(C)C[C@H](NC(=O)c1cc2ccccc2[nH]1)C(=O)N[C@H](C=O)C[C@@H]1CCNC1=O` [AC1115, reference compound], the Ki ([3]; AC1115) is given as 2.4 nM and the Ki (human cathepsin L [5]; AC1115) is given as about 0.06 nM.
